The values that follow come from patent publication US20130190217A1, “ESTER OILS” (PANOLIN Holding AG, priority 2010, published 2013).

A short description of one series: Kinematic viscosity. Type of series: physicochemical.
A short description of a further series: Viscosity index (VI). Type of series: physicochemical.
A short description of another series: Pour point. Type of series: physicochemical. The source says:
In addition, the inventive ester oils have a high flashpoint, such that use at relatively high oil sump and component temperatures is possible without risk. In addition, the pour point of the ester oils is relatively low, as a result of which the esters are also usable at low temperatures. For a liquid product, the pour point denotes the temperature at which it is still just free-flowing in the course of cooling. Thus, the inventive ester oils can be used within a broad temperature range.

The next series can be described thus: Flashpoint. The format is physicochemical.
Series [1] in a line: NOACK vaporization (physical vaporization according to Noack, 250° C. for 1 h). The format is physicochemical. From the text: Trimethylolpropane esters (TMP-C8/C10) are commercially available from various suppliers and have been used for comparative purposes.
The conditions of series [2]: taken from safety data sheets; cited from earlier work.
For series [3] the following is noted: taken from safety data sheets; cited from earlier work. This is another data set of the same source.
The conditions of series [4]: taken from safety data sheets; cited from earlier work. This is another data set of the same source.
A short description of series [5]: Cold Crank Simulator according to ASTM D5293. The format is physicochemical. How it is done: For the C12D13 esters and the C10D13 esters, three independently prepared samples were included in each case. For the C9D13 ester and for the D5C18 ester, one sample was analyzed in each case. The “CCS−25° C. [mPas]” and “CCS−20° C. [mPas]” columns each contain figures for the “Cold Crank Simulator” according to the standard ASTM D5293 at −25° C. and −20° C. The HTHS150° C. [mPas] column indicates what is called the “High-Temperature High-Shear Viscosity” (HTHS) at elevated temperature.

A short description of the next series: Density. The format is physicochemical. To be noted: Table 3.
Setting [6] is: Table 3, listed as C10D13 (4th sample).
Setting [7] is: Table 3, listed as C10D13 (5th sample).

Several values for one entry are separate records, joined by “and”; a condition that tells them apart may be missing. Identical values can stand only once.

Regarding `CCCCCCCCC(CCCCCC)COC(=O)CCCCCCCC(=O)OCC(CCCCCC)CCCCCCCC` (stereo not drawn) [Bis(2-hexyldecyl) azelate], the “η40° C.” value in “Kinematic viscosity” (Table 2, 40° C.) was determined as 33.0 mm^2/s. For the same compound, the “η100° C.” value in the series “Kinematic viscosity” (Table 2, 100° C.) is on record as 6.60 mm^2/s. This compound gave a VI in the series “Viscosity index (VI)” (Table 2, base oil) of 160. The Pour point in the series “Pour point” (Table 2, base oil) was −64 °C. The compound further came in with a Flashpoint in “Flashpoint” (Table 2, base oil) of 278 °C.
For `CC(C)CCCCCCCCCCOC(=O)CCCCCCCC(=O)OCCCCCCCCCCC(C)C` [C9D13, di(isotridecyl)nonanedioate], the “η40° C.” value was determined as 42.4 mm^2/s in the series “Kinematic viscosity” (Table 2, 40° C.) and 36.1 mm^2/s in the series “Kinematic viscosity” (Table 3, 40° C.). Moreover, the “η100° C.” value turned out to be 6.82 mm^2/s in “Kinematic viscosity” (Table 2, 100° C.) and 6.8 mm^2/s in “Kinematic viscosity” (Table 3, 100° C.). Further, the VI in “Viscosity index (VI)” (Table 2, base oil) is on record as 124; in “Viscosity index (VI)” (Table 3) it was 150. In “Pour point” (Table 2, base oil), the Pour point was −39 °C. The NOACK was found to be 4.0% in [1] (Table 2, base oil) and 3.5% in [1] (Table 3, 250° C. for 1 h). In the series “Flashpoint” (Table 2, base oil), this compound had a Flashpoint of 258 °C.
Take `CC(C)CCCCCCCCCCOC(=O)CCCCCCCCC(=O)OCCCCCCCCCCC(C)C` [C10D13, di(isotridecyl)decanedioate]: the “η40° C.” value in “Kinematic viscosity” (Table 3, 40° C., listed as C10D13 (4th sample)) came out at 35.5 mm^2/s; in the series “Kinematic viscosity” (Table 3, 40° C., listed as C10D13 (5th sample)) it was 36.0 mm^2/s; in the series “Kinematic viscosity” (Table 3, 40° C., listed as C10D13 (6th sample)) it was 35.7 mm^2/s. In addition, the “η100° C.” value came out at 7.2 mm^2/s in “Kinematic viscosity” (Table 3, 100° C., listed as C10D13 (4th sample)); 6.8 mm^2/s in “Kinematic viscosity” (Table 3, 100° C., listed as C10D13 (5th sample)); 6.7 mm^2/s in the series “Kinematic viscosity” (Table 3, 100° C., listed as C10D13 (6th sample)). The VI in the series “Viscosity index (VI)” (setting [6]) is listed as 172; in the series “Viscosity index (VI)” (setting [7]), 150; in “Viscosity index (VI)” (Table 3, listed as C10D13 (6th sample)), 149. For the same compound, the Pour point is −52 °C in “Pour point” (setting [6]) and −50 °C in the series “Pour point” (setting [7]). In addition, the NOACK in series [1] (Table 3, 250° C. for 1 h, listed as C10D13 (4th sample)) is 2.7%; in series [1] (Table 3, 250° C. for 1 h, listed as C10D13 (5th sample)), 4%; in series [1] (Table 3, 250° C. for 1 h, listed as C10D13 (6th sample)), 3.4%. In the series “Flashpoint” (Table 3), this compound yielded a Flashpoint of 250 °C.
Regarding `CC(C)CCCCCCCCCCCCCCC(=O)OCC(C)(C)COC(=O)CCCCCCCCCCCCCCC(C)C` [D5C18, neopentyl glycol di(isostearate)], the “η40° C.” value in the series “Kinematic viscosity” (Table 3, 40° C.) came to 46.0 mm^2/s. The “η100° C.” value in “Kinematic viscosity” (Table 3, 100° C.) came to 8.0 mm^2/s. Further, the VI in the series “Viscosity index (VI)” (Table 3) is given as 146. Besides, in “Pour point” (Table 3), the Pour point was −44 °C. The “Aquatic toxicity OECD 203” value in [2] is recorded as >10 000 mg/l. The compound also registered an NOACK in series [1] (Table 3, 250° C. for 1 h) of 2.0%. In addition, in series [3], the “Aquatic toxicity OECD 201” value is >1000 mg/L. Also, in series [4], the “Aquatic toxicity OECD 202” value was >1000 mg/L. In addition, in “Flashpoint” (Table 3), the Flashpoint came out at 280 °C.
For `CC(C)CCCCCCCCCCOC(=O)CCCCC(=O)OCCCCCCCCCCC(C)C` [DITA, diisotridecyl adipate, reference compound], the “CCS−20° C.” value in series [5] is 1455 mPas. Further, in series [5], the “CCS−25° C.” value was 2646 mPas. This compound yielded a Density in the series “Density” of 0.91 g/mL. Moreover, the “η40° C.” value is listed as 27.0 mm^2/s in “Kinematic viscosity” (Table 2, 40° C.) and 25 mm^2/s in the series “Kinematic viscosity” (Table 3, 40° C.). The “η100° C.” value in the series “Kinematic viscosity” (Table 2, 100° C.) amounted to 5.4 mm^2/s; in “Kinematic viscosity” (Table 3, 100° C.), 5 mm^2/s. For the same compound, the VI was 139 in the series “Viscosity index (VI)” (Table 2, base oil) and 139 in the series “Viscosity index (VI)” (Table 3). The Pour point is −51 °C in “Pour point” (Table 2, base oil) and −60 °C in “Pour point” (Table 3). Further, the NOACK is 8-10% in series [1] (Table 2, base oil) and 10.0% in series [1] (Table 3, 250° C. for 1 h). Further, in series [3], the “Aquatic toxicity OECD 201” value was >1000 mg/L. In addition, the “Aquatic toxicity OECD 202” value in [4] was >100 mg/L. Moreover, the Flashpoint in the series “Flashpoint” (Table 2, base oil) stood at 227 °C; in the series “Flashpoint” (Table 3), 244 °C.
Turning to `CC(C)CCCCCCCOC(=O)CCCCCCCCCCC(=O)OCCCCCCCC(C)C` [Di(isodecyl) dodecanedioate], the “η40° C.” value in the series “Kinematic viscosity” (Table 2, 40° C.) is 25.7 mm^2/s and 23.4 mm^2/s. The “η100° C.” value in “Kinematic viscosity” (Table 2, 100° C.) is 5.58 mm^2/s and 5.2 mm^2/s. The VI in the series “Viscosity index (VI)” (Table 2, base oil) is 161 and 162. Further, the NOACK in series [1] (Table 2, base oil) was 3.5% and 4.3%. The compound also displayed a Flashpoint in the series “Flashpoint” (Table 2, base oil) of 266 °C.
Turning to `CC(C)CCCCCCCOC(=O)CCCCC(=O)OCCCCCCCC(C)C` [Diisodecyl adipate], the “η40° C.” value in “Kinematic viscosity” (Table 2, 40° C.) turned out to be 14.0 mm^2/s. Further, the “η100° C.” value in “Kinematic viscosity” (Table 2, 100° C.) is recorded as 3.10 mm^2/s. The compound further yielded a VI in “Viscosity index (VI)” (Table 2, base oil) of 148. The Pour point in the series “Pour point” (Table 2, base oil) is −60 °C. The compound also had an NOACK in [1] (Table 2, base oil) of 15.5%. Also, the Flashpoint in “Flashpoint” (Table 2, base oil) is 235 °C.
Turning to `CC(C)CCCCCCCOC(=O)CCCCCCCC(=O)OCCCCCCCC(C)C` [Diisodecyl azelate], the “η40° C.” value in “Kinematic viscosity” (Table 2, 40° C.) worked out at 18.1 mm^2/s. In addition, the “η100° C.” value in “Kinematic viscosity” (Table 2, 100° C.) is 4.3 mm^2/s. This compound came in with a VI in the series “Viscosity index (VI)” (Table 2, base oil) of 151. Also, in “Pour point” (Table 2, base oil), the Pour point was −65 °C. Besides, the NOACK in series [1] (Table 2, base oil) is reported as 9.8%. For the same compound, the Flashpoint in “Flashpoint” (Table 2, base oil) is 230 °C.
As for `CCCCCCCCCCCCCCOC(=O)CCCCC(=O)OCCCCCCCCCCCCCC` [Ditetradecyl adipate], the “η40° C.” value in the series “Kinematic viscosity” (Table 2, 40° C.) is given as 34.3 mm^2/s. The “η100° C.” value in the series “Kinematic viscosity” (Table 2, 100° C.) was determined as 5.1 mm^2/s. In addition, in “Viscosity index (VI)” (Table 2, base oil), the VI came out at 75.
As to `CCCCCCCCCCCCCOC(=O)CCCCCCCC(=O)OCCCCCCCCCCCCC` [Ditridecyl azelate], in the series “Kinematic viscosity” (Table 2, 40° C.), the “η40° C.” value stood at 33.8 mm^2/s. Further, the “η100° C.” value in “Kinematic viscosity” (Table 2, 100° C.) stood at 6.4 mm^2/s. The same compound displayed a VI in the series “Viscosity index (VI)” (Table 2, base oil) of 145. Further, the Pour point in the series “Pour point” (Table 2, base oil) is −55 °C. Moreover, the Flashpoint in the series “Flashpoint” (Table 2, base oil) was 243 °C.
As to Di(C9) dodecanedioate, the “η40° C.” value in the series “Kinematic viscosity” (Table 2, 40° C.) was 24.8 mm^2/s. In addition, the “η100° C.” value in “Kinematic viscosity” (Table 2, 100° C.) is on record as 5.6 mm^2/s. The VI in “Viscosity index (VI)” (Table 2, base oil) is 189. In [1] (Table 2, base oil), this compound yielded an NOACK of 5.0%. The compound also showed a Flashpoint in “Flashpoint” (Table 2, base oil) of 245 °C.
Consider Di(iso-C9) dodecanedioate, for which the “η40° C.” value in the series “Kinematic viscosity” (Table 2, 40° C.) was determined as 23.2 mm^2/s. Also, the “η100° C.” value in the series “Kinematic viscosity” (Table 2, 100° C.) worked out at 5.28 mm^2/s. This compound gave a VI in “Viscosity index (VI)” (Table 2, base oil) of 184. Further, the Pour point in “Pour point” (Table 2, base oil) was −25 °C. Also, in [1] (Table 2, base oil), the NOACK came to 6.0%.
Take Dodecanediol dipelargonate: in the series “Kinematic viscosity” (Table 2, 40° C.), the “η40° C.” value amounted to 25.25 mm^2/s. In addition, the “η100° C.” value in the series “Kinematic viscosity” (Table 2, 100° C.) amounted to 5.58 mm^2/s. In “Viscosity index (VI)” (Table 2, base oil), the VI came out at 182. Besides, the Pour point in “Pour point” (Table 2, base oil) was −38 °C. In series [1] (Table 2, base oil), this compound yielded an NOACK of 7.4%.
Take “trimethylolpropane ester [TMP-C8/10, reference compound]”: in [5], the “CCS−20° C.” value was 221 mPas and the “CCS−25° C.” value is on record as 853 mPas. In the series “Density”, this compound had a Density of 0.94 g/mL. Further, the “η40° C.” value in “Kinematic viscosity” (Table 3, 40° C.) stood at 22 mm^2/s. In the series “Kinematic viscosity” (Table 3, 100° C.), the “η100° C.” value was 4.5 mm^2/s. For the same compound, in the series “Viscosity index (VI)” (Table 3), the VI amounted to 140. In addition, the Pour point in the series “Pour point” (Table 3) is −30 °C. In addition, the “Aquatic toxicity OECD 203” value in series [2] was >10 000 mg/l. This compound displayed an NOACK in [1] (Table 3, 250° C. for 1 h) of 3.6%. For the same compound, in series [3], the “Aquatic toxicity OECD 201” value was 140 mg/L. The “Aquatic toxicity OECD 202” value in series [4] was 600 mg/L. The compound also showed a Flashpoint in the series “Flashpoint” (Table 3) of 235 °C.
